One assay addresses Avi-tagged FL MALT-1 (Homo sapiens (Human), UniProt Q9UDY8). The experiment in a line: MALT-1 Fluorogenic Peptide Cleavage Assay (MALT1 inhibition assay). The format is biochemical. To be noted: Ac-LRSR-AMC peptide substrate, 30 min pre-incubation, 90 min reaction at room temperature. Here is the method:
Inhibition of MALT1 activity by the presence of small molecules was evaluated using MALT-1 Fluorogenic Peptide Cleavage Assay. The assay utilizes a quenched AMC-labelled peptide that contains the MALT-1 recognition sequence and cleavage site (LRSR). MALT-1 mediated cleavage of the peptide relieves the quenching and leads to an increase in fluorescence at excitation (342 nm) and emission (441 nm).
The following reagents were obtained commercially and used to prepare standard reagent formulations as further described below: N-2-hydroxyethylpiperazine-N-2-ethane sulfonic acid (HEPES) (1 M, pH 7.5, stored at 4° C.), sodium citrate (stored at RT), tris(2-carboxyethyl) phosphine hydrochloride (T-CEP) (500 mM, stored at −20° C.), ethylenediaminetetraacetic acid (EDTA) (500 mM, stored at RT), dimethylsulfoxide (DMSO, stored at RT), 3-[(3-cholamido-propyl)dimethylammonio]-1-propane sulphate (CHAPS) (stored at RT), dimethylsulfoxide (DMSO), DMSO (Fisher Scientific, stored at RT), Avi-tagged FL MALT-1 (Pharmaron, stored at −70° C.), Ac-LRSR-AMC Peptide (SM Biochemicals, stored at −20° C.)., and ultrapure water (MILLLI-Q©).
The standard reagent formulations used in this assay were prepared and stored as follows. A 1.1 M solution of sodium citrate (161.3 g, 500 mL) was prepared and stored at room temperature. A 10% (w/v) CHAPS solution (2.0 g, 20 mL) was prepared and stored at 4° C. A 500 mM HEPES solution having pH of 6.89 was prepared from 200 mL of a 1 M HEPES solution having a pH of 7.5 using concentrated hydrochloric acid and brought to a final volume of 400 mL with MILLI-Q© H2O. The substrate, 10 mM Ac-LRSR-AMC Peptide, was prepared (10 mg, 1.370 mL DMSO) and stored at −20° C.
Compounds were plated to provide a 2% DMSO final concentration using a ProxiPlate-384 Plus F Black 384-shallow well microplate. The assay-ready plates were equilibrated to room temperature. A reaction buffer (30 mL total volume) was prepared by combining HEPES (pH 6.89, 25 mM, 1.5 mL), sodium citrate (660 mM, 18.0 mL), T-CEP (1 mM, 0.06 mL), EDTA ([…], 0.06 mL), CHAPS (0.05%, 0.15 mL), DMSO (2%, 0.6 mL), and MILLI-Q© H2O (10.23 mL; 9.63 mL when backfilled to 2% DMSO) followed by thorough mixing. DMSO was added only when compound plates had not been DMSO-backfilled to 2%.
MALT-1 was thawed and kept on ice. Peptide substrate was thawed on the bench under ambient conditions. A MALT-1 enzyme working stock was prepared from Avi-tagged FL MALT-1 (40 nM in a prepared reagent volume of 16.5 μL) and the reaction buffer (13.0 mL). MALT1 working stock (5 μL) was added to each well of the microplate. MALT-1 was pre-incubated with compounds for 30 minutes at room temperature.
Two substrate working stocks (Km and 10×Km) were prepared. The 1×Km substrate was prepared from Ac-LRSR-AMC Peptide (50 μM in a prepared reagent volume of 35.0 μL) and the reaction buffer (6.965 mL). The 10×Km substrate was prepared from Ac-LRSR-AMC Peptide (280 μM in a prepared reagent volume of 196.0 μL) and the reaction buffer (6.804 mL). The reaction was initiated by the addition of substrate working stock (5 μL, 50 μM) to Km plates and the addition of substrate working stock (5 μL 280 μM) to 10×Km plates. The plates were covered and incubated on the bench at room temperature for 90 minutes.
Fluorescence intensity was determined using a CLARIOstar microplate reader (BMG LABTECH) using the optimised AMC mode. Before taking readings, a 70% gain was applied on the neutral control well. Compound data were normalised to % Inhibition and used to plot sigmoidal concentration response curves to yield various parameters including IC50.

Assay [1] relates to NF-kB reporter in Jurkat cells. In words: NF-kB reporter assay in Jurkat cells stimulated with aCD3/aCD28/PMA. The format is cell-based. To be noted: Jurkat cells, 1 hr compound pre-incubation, aCD3/aCD28/PMA stimulation 4 hr, One-Glo readout, read-out: NF-kB Reporter Assay IC50. The protocol: Jurkat cells were maintained in complete RPMI 1640 media supplemented with 10% FBS. Prior to the assay, 120 nL of the serial diluted compound was added in each well of 384-well flat bottom white plate (Corning #3570) by using liquid handler Echo550. Jurkat cells were harvested by centrifugation at 120 g for 10 min and resuspended in fresh RPMI 1640 media without serum. […] (25,000 cells) were seeded in each well of 384-well plate containing compound. After 1 hr incubation at 37° C. in a 5% CO2 incubator, […] of diluted aCD3/aCD28/PMA (final concentration at […] and […], respectively) in RPMI 1640 without serum were added to each well. After incubation at 37° C. in 5% CO2 for 4 hr, […] of One-Glo reagent (Promega #E6120) was added into each well. The plate was left at room temperature for 5 min and the signal was measured on EnVision (PerkinElmer).
Compounds in which an IC50 was not measured are designated as “N/A”.
On the technique in general: Reporter assays use an easily measured gene product as a stand-in for the process of interest.

A word on the pIC50: it is the IC50 on a negative log10 scale, so that one unit is a factor of ten.

Structures are written as SMILES. pIC50: −log10 of the molar value. Where two headings read alike, the source gives them in different places.

Avi-tagged FL MALT-1, sequence (Q9UDY8 whole entry): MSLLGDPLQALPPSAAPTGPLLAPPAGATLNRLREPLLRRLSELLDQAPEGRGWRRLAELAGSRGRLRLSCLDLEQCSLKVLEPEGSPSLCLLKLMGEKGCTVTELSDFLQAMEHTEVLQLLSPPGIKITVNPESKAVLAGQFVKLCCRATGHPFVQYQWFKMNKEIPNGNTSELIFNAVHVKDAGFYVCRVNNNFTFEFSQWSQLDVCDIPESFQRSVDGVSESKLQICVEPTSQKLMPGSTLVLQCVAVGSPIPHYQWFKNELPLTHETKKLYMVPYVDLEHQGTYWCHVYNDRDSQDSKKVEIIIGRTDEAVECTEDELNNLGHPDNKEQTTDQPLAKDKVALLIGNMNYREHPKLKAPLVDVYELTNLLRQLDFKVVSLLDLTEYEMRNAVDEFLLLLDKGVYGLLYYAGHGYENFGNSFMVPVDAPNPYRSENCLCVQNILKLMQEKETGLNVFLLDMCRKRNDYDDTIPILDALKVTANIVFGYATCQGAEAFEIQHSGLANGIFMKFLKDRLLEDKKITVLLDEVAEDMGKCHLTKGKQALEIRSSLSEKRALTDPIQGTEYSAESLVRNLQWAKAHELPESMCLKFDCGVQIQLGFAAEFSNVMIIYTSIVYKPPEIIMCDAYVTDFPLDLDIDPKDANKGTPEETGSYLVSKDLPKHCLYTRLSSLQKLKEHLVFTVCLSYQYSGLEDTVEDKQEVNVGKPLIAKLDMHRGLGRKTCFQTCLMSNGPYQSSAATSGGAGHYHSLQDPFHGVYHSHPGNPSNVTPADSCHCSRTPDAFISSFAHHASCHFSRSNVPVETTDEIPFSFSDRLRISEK

With `COc1ncc2cnn(C)c2c1NS(=O)(=O)c1cnn(-c2cc(N3CC4CC3C4)ccn2)c1` [Compound I-436], the results for the pIC50 (at Avi-tagged FL MALT-1; in assay [1] (Homo sapiens)) were 5.60 to 6.00 and greater than 6.40, respectively.

`CCc1ccc2cnn(C)c2c1NS(=O)(=O)c1cnn(-c2ccnc(C3CC3)c2)c1` [Compound I-33, 1-(2-Cyclopropylpyridin-4-yl)-N-(6-ethyl-1-Methyl-1H-Indazol-7-yl)-1H-Pyrazole-4-Sulfonamide]: the pIC50 is no less than 6.40 at Avi-tagged FL MALT-1 and greater than 6.40 in assay [1] (Homo sapiens).

Take `COc1ccc2cnn(C)c2c1NS(=O)(=O)c1cnn(-c2cc(N3CCCCCC3)ccn2)c1` [Compound I-392]: the pIC50 at Avi-tagged FL MALT-1 is less than 5.60; in assay [1] (Homo sapiens), greater than 6.40.

`Cn1ncc2cncc(NS(=O)(=O)c3cnn(-c4cc(C(C)(F)F)ccn4)c3)c21` [Compound I-120, 1-(4-(1,1-Difluoroethyl)Pyridin-2-yl)-N-(1-Methyl-1H-Pyrazolo[4,3-C]Pyridin-7-yl)-1H-Pyrazole-4-Sulfonamide]: the pIC50 (at Avi-tagged FL MALT-1; in assay [1] (Homo sapiens)) was less than 5.60 in each case.

As for `COc1ccc2cnn(C)c2c1NS(=O)(=O)c1cnn(-c2cc(C(C)O)ccn2)c1` (centres unmarked) [Compound I-339, 1-(4-(1-hydroxyethyl)pyridin-2-yl)-N-(6-methoxy-1-methyl-1H-indazol-7-yl)-1H-pyrazole-4-sulfonamide], the values for the pIC50 (on Avi-tagged FL MALT-1; in assay [1]) were no less than 6.40 and greater than 6.40, respectively.

For the compound `COc1ncc2cnn(C)c2c1NS(=O)(=O)c1cnn(-c2cc(C(C)(C)O)ccn2)c1` [Compound I-260, 1-(4-(2-hydroxypropan-2-yl)pyridin-2-yl)-N-(6-methoxy-1-methyl-1H-pyrazolo[4,3-c]pyridin-7-yl)-1H-pyrazole-4-sulfonamide], the negative-log IC50 (pIC50) (against Avi-tagged FL MALT-1; in assay [1] (Homo sapiens)) was 6.00 to 6.40 in each case.

As for `COc1ccc2cnn(C)c2c1NS(=O)(=O)c1cnn(-c2cc(N3CC4(CC4)C3)ccn2)c1` [Compound I-371, 1-(4-(5-azaspiro[2.3]hexan-5-yl)pyridin-2-yl)-N-(6-methoxy-1-methyl-1H-indazol-7-yl)-1H-pyrazole-4-sulfonamide], the pIC50 on Avi-tagged FL MALT-1 is less than 5.60; in assay [1] (Homo sapiens), greater than 6.40.

Regarding `Cn1ncc2cccc(NS(=O)(=O)c3cnn(-c4cc(C5(O)CC(F)C5)ccn4)c3)c21` (centres unmarked) [Compound I-358], the results for the pIC50 (against Avi-tagged FL MALT-1; in assay [1] (Homo sapiens)) were less than 5.60 and greater than 6.40, respectively.

Consider `COc1ccc2cnn(C)c2c1NS(=O)(=O)c1cn(-c2cc(C(F)(F)F)ccn2)nc1C` [Compound I-83, N-(6-Methoxy-1-Methyl-1H-Indazol-7-yl)-3-Methyl-1-(4-(Trifluoromethyl)Pyridin-2-yl)-1H-Pyrazole-4-Sulfonamide], for which the negative logarithm of the IC50 (pIC50) against Avi-tagged FL MALT-1 was no less than 6.40; in assay [1] (Homo sapiens), greater than 6.40.

Consider `COc1ccc2cnn(C)c2c1NS(=O)(=O)c1cnn(-c2cc(N3CC4CC4C3)ccn2)c1` (centres unmarked) [Compound I-417], for which the pIC50 against Avi-tagged FL MALT-1 was less than 5.60; in assay [1] (Homo sapiens) it was greater than 6.40.

Take `COc1ccc2cnn(C)c2c1NS(=O)(=O)c1cnn(-c2cc(C(C)(F)F)ccn2)c1` [Compound I-91, 1-(4-(1,1-Difluoroethyl)Pyridin-2-yl)-N-(6-Methoxy-1-Methyl-1H-Indazol-7-yl)-1H-Pyrazole-4-Sulfonamide]: the values for the pIC50 (at Avi-tagged FL MALT-1; in assay [1] (Homo sapiens)) were no less than 6.40 and greater than 6.40, respectively.

Regarding `COc1ccc2cnn(C)c2c1NS(=O)(=O)c1cnn(-c2cc(C3(OC)CC(C)C3)ccn2)c1` (single isomer, unassigned) [Compound I-364, N-(6-methoxy-1-methyl-1H-indazol-7-yl)-1-(4-(1-methoxy-3-methylcyclobutyl)pyridin-2-yl)-1H-pyrazole-4-sulfonamide], the pIC50 on Avi-tagged FL MALT-1 was 6.00 to 6.40; in assay [1] (Homo sapiens), greater than 6.40.

For the compound `Cn1ncc2ccc(CC#N)c(NS(=O)(=O)c3cnn(-c4ccnc(C(F)(F)F)c4)c3)c21` [Compound I-6, N-(6-(Cyanomethyl)-1-Methyl-1H-Indazol-7-yl)-1-(2-(Trifluoromethyl)Pyridin-4-yl)-1H-Pyrazole-4-Sulfonamide], the figures for the pIC50 (at Avi-tagged FL MALT-1; in assay [1] (Homo sapiens)) were 6.00 to 6.40 and 5.60 to 6.00, respectively.

Consider `COC[C@](C)(O)c1ccnc(-n2cc(S(=O)(=O)Nc3cccc4cnn(C)c34)cn2)c1` [Compound I-267], for which the pIC50 against Avi-tagged FL MALT-1 is less than 5.60; in assay [1] (Homo sapiens) it was greater than 6.40.

For `CN1CCC[C@@H](n2cc(S(=O)(=O)Nc3cccc4cnn(C)c34)cn2)C1` [Compound I-308, N-(1-methylindazol-7-yl)-1-[(3R)-1-methylpiperidin-3-yl]pyrazole-4-sulfonamide], the pIC50 (against Avi-tagged FL MALT-1; in assay [1] (Homo sapiens)) was less than 5.60 in each case.

Turning to `Cn1ncc2cccc(NS(=O)(=O)c3cnn(-c4cc(C5(O)CCCCC5)ccn4)c3)c21` [Compound I-256, 1-[4-(1-hydroxycyclohexyl)pyridin-2-yl]-N-(1-methylindazol-7-yl)pyrazole-4-sulfonamide], the pIC50 at Avi-tagged FL MALT-1 was less than 5.60; in assay [1] (Homo sapiens), greater than 6.40.

Take `Cn1ncc2cccc(NS(=O)(=O)c3cnn(-c4cc(C5(O)CCOC5)ccn4)c3)c21` (centres unmarked) [Compound I-128, 1-(4-(3-hydroxytetrahydrofuran-3-yl)pyridin-2-yl)-N-(1-methyl-1H-indazol-7-yl)-1H-pyrazole-4-sulfonamide]: the pIC50 at Avi-tagged FL MALT-1 was less than 5.60; in assay [1] (Homo sapiens), greater than 6.40.

As to `CC[C@@](C)(O)c1ccnc(-n2cc(S(=O)(=O)Nc3cccc4cnn(C)c34)cn2)c1` [Compound I-295], the results for the pIC50 (against Avi-tagged FL MALT-1; in assay [1] (Homo sapiens)) were less than 5.60 and greater than 6.40, respectively.

On to `CCC(CC)(OC)c1ccnc(-n2cc(S(=O)(=O)Nc3cccc4cnn(C)c34)cn2)c1` [Compound I-296], for which the pIC50 is less than 5.60 at Avi-tagged FL MALT-1 and greater than 6.40 in assay [1] (Homo sapiens).

For `Cn1ncc2cccc(NS(=O)(=O)c3cnn(-c4cc(N5C(=O)OCC5(C)C)ccn4)c3)c21` [Compound I-321], the negative logarithm of the IC50 (pIC50) against Avi-tagged FL MALT-1 is less than 5.60; in assay [1] (Homo sapiens), greater than 6.40.

As for `COc1ccc2cnn(C)c2c1NS(=O)(=O)c1cnn(-c2cc(C(F)F)ccn2)c1` [Compound I-133, 1-(4-(Difluoromethyl)Pyridin-2-yl)-N-(6-Methoxy-1-Methyl-1H-Indazol-7-yl)-1H-Pyrazole-4-Sulfonamide], the pIC50 against Avi-tagged FL MALT-1 is no less than 6.40; in assay [1] (Homo sapiens), greater than 6.40.

For the compound `Cn1ncc2cccc(NS(=O)(=O)c3cnn(-c4cc(C5(F)CC(F)C5)ccn4)c3)c21` (centres unmarked) [Compound I-112, 1-(4-(1,3-difluorocyclobutyl)pyridin-2-yl)-N-(1-methyl-1H-indazol-7-yl)-1H-pyrazole-4-sulfonamide], the pIC50 is less than 5.60 at Avi-tagged FL MALT-1 and greater than 6.40 in assay [1] (Homo sapiens).

For the origin of these results see patent US20240150321A1, “PYRAZOLYLSULFONAMIDE COMPOUNDS AND THEIR USE IN THERAPY” (HOTSPOT THERAPEUTICS, INC., priority 2022, published 2024).
